Assays:
hERG channel = molecular target: T1, hERG channel (Homo sapiens, UniProt Q12809); assay: In vitro hERG channel whole cell patch clamp; format: cell-based; conditions: CHO-K1 cells expressing hERG
T1 construct: expressed in transfected cells; host or cells: CHO-K1
Procedure: Blockade of the delayed rectifier potassium current (IKr) encoded by hERG gene (human ether a go go-related gene) can lead to QT interval prolongation and is therefore investigated as part of the cardiac risk assessment. This channel is critical for the repolarisation of the cardiac membrane. The effect of the compounds on IKr was assessed by whole cell patch clamp in stably transfected CHO-K1 cells expressing hERG (Human Ether-a-go-go Related Gene) channel following superfusion at different concentrations up to 30 μM.

[1] = Intrinsic clearance in hepatocytes, rat; format: in vitro ADME, male Wistar Han rats; conditions: 2.5 μM
Procedure: (§1) The intrinsic clearance was assessed in cryopreserved Hepatocytes obtained by Human livers donors of mix gender pooled together, male balb-c mouse, male Wistar Han rats and male Göttingen minipig, by looking at the parent compound disappearance. The incubations were performed using a final concentration of viable cells of 1 million/ml (viability above 70%) and test item of 2.5 μM. Incubations were followed up to 2 h. Aliquotes were withdrawn at different time points and reaction quenched with acetonitrile. After centrifugation the supernatant was analyzed by HPLC/MS to quantify the remaining amount of parent in comparison with time 0. The clearance was calculated by fitting the log of the percentage remaining with Graphpad Prism ver.7.

Tyk2 enzyme = molecular target: T2, Tyk2 enzyme (Homo sapiens, UniProt P29597); assay: In vitro enzyme assay (Cisbio kinase assay), Tyk2; format: biochemical; conditions: ATP 300 μM; read-out: Enzymatic assay: Tyk2
T2 construct: purchased Life Technologies PR8440C

3T3 murine fibroblasts = assay: Phototoxicity (Neutral red uptake); format: cell-based; conditions: 3T3 fibroblasts, 7 J/cm2 UVA/UVB
Procedure: Phototoxicity was evaluated in 3T3 murine fibroblasts. Cells were incubated with different concentrations of test compounds. One plate was then exposed to a dose of 7 J/cm2 (UVA/UVB mimicking usual solar exposure) whereas the other plate was kept in the dark. The treatment medium was then replaced with culture medium and after 24 h cell viability was determined by Neutral red uptake. Concentration leading to 50% decrease of viability was calculated in the absence and in the presence of irradiation. The PIF (photo irritation factor) ratio was then calculated: […]).

Recombinant JAK1 = molecular target: T3, Recombinant JAK1 (Homo sapiens, UniProt P23458); assay: In vitro enzyme assay (Cisbio kinase assay), JAK1; format: biochemical; conditions: ATP 300 μM; read-out: Enzymatic assay: IC50 JAK1
T3 construct: purchased Life Technologies PV4775

pKa = format: physicochemical
CYP3A4 = molecular target: T4, CYP3A4 (Homo sapiens, UniProt P08684); assay: CYP3A inhibition in human liver microsomes; format: in vitro ADME; conditions: testosterone, CRL data, read-out: IC50 CYP3A4 testo.
T4 construct: Human pooled liver microsomes of mixed gender (mainly Caucasian); from tissue; host or cells: pooled human liver microsomes

SF logD = format: physicochemical
[2] = Systemic level in PD/IL6 mouse topical dose response; format: in vivo, BALB/c ByJ Rj mice; conditions: topical 10 mM
Procedure: Skin samples were harvested 15 min.

Kinetic aq sol = format: physicochemical
[3] = Protein binding analysis (RED), mouse plasma; format: in vitro ADME, male balb-c mice; conditions: 5 μM
Procedure: (§2) The protein binding was assessed in plasma of Human, male balb-c mice, male Wistar Han rat, male Göttingen minipig by rapid equilibrium dialysis (RED) devices. After the plasma and buffer phosphate 50 mM pH7.4 were equilibrated at 37° C., the compound was added to plasma to reach a final concentration of 5 μM. An aliquot of plasma was withdrawn immediately. Equilibration under mild agitation was continued for 4 h. The plasma and buffer were sampled and samples were quenched with 4 volumes of acetonitrile and centrifuged. Supernatant was quantified in HPLC/MS/MS to calculate the recovery and the percentage of compound dissolved in the buffer (unbound) and bound to plasma proteins.

p-STAT3Y705 in skin = assay: In vivo pharmacodynamy model: IL-6 induced Phospho-STAT3, topical; set-up: species or system BALB/c ByJ Rj mice; PD/IL6 mouse top @1 mM % vs Tofa: unit not given here; conditions: topical 1 mM, PG/EtOH 3/7
iv PK mice = conditions: female, mouse, in vivo
Text: Other studies including, but not limited to, CaCO2 permeability, metabolite profiling in human microsomes (Syneos 7007703.SA.186) and in human hepatocytes (Syneos 7007703.SA.185), metabolite M3b structural elucidation (Syneos 7007703.SA.186), mouse iv female (ODS CFH-1798), mouse iv+ABT females (ODS CFH 1799), mouse topical d1,d10 (ODS Study Number: NBK39-32, 12 Sep. 2019, ELN Bioanalysis study: NBK156-79), rat iv (Pharmaron PH-DMPK-GAL-20-002), dog topical d1, d10 (CRL FY19.085) and minipig topical PK dl, d7 (Pharmaron 92404-19-914) are also conducted using the standard protocols known in the art.

IL6 = assay: hWB assay, IL6; format: cell-based, h
[4] = Protein binding analysis (RED), human plasma; format: in vitro ADME; conditions: 5 μM
Procedure: as §2

[5] = Protein binding analysis (RED), rat plasma; format: in vitro ADME, male Wistar Han rat; conditions: 5 μM
Procedure: as §2

kinase panel (403) = assay: Kinase selectivity S35 / S1 at 10 μM; format: binding
[6] = In vivo pharmacokinetic analysis in minipig (iv); set-up: species or system male Göttingen minipigs; conditions: iv 1 mg/kg
Procedure: Three male Göttingen minipigs. Compound was administered intravenously to fed animals at a target dose of 1 mg/kg, dose volume 1 mL/kg, in DMSO: hydroxypropyl-p-cyclodextrin 20% in phosphate buffer 60 mM pH 7 (5:95). Blood samples were collected at various time points. Blood samples were then assayed using a method based upon protein precipitation with acetonitrile followed by LC/MS/MS analysis. Non-compartmental methods were used for pharmacokinetic analysis of blood concentration versus time data.

Chrom logD pH 7.4 = format: physicochemical
[7] = Intrinsic clearance in hepatocytes, human; format: in vitro ADME; conditions: 2.5 μM
Procedure: as §1

[8] = Human skin ex vivo: flux through skin and dermis concentration (Franz cells); format: in vitro ADME; conditions: PG/H2O cream 1 mg/mL, human skin

T2 sequence (P29597 whole entry): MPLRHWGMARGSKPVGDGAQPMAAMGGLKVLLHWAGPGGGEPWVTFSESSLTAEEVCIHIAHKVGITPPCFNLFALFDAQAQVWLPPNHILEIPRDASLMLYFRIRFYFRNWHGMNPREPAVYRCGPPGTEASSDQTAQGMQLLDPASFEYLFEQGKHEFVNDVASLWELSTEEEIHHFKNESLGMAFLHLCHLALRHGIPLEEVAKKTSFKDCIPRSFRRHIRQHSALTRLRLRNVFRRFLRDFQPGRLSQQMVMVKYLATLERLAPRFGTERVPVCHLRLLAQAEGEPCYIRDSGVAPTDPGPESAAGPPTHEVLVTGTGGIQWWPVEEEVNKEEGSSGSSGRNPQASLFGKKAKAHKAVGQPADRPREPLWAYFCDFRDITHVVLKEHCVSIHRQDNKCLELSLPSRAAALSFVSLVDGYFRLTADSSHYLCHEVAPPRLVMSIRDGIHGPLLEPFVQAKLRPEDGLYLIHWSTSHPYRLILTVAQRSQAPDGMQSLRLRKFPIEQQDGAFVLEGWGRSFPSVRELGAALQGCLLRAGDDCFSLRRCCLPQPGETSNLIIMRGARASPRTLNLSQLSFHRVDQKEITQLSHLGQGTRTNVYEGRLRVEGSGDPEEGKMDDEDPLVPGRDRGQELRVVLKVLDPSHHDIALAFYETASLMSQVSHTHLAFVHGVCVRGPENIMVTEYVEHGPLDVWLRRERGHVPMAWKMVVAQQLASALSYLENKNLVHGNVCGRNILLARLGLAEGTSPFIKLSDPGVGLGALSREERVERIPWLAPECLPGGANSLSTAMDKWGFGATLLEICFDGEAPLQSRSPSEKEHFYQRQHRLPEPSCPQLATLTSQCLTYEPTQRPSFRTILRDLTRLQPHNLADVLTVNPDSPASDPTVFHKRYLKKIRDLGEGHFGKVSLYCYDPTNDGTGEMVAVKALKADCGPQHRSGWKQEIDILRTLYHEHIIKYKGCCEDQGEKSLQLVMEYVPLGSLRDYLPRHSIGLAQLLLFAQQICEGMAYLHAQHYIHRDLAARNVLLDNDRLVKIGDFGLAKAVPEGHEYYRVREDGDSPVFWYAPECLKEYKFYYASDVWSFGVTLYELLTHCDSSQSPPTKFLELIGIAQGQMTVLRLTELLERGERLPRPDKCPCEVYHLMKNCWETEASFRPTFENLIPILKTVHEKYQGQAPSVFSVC
T1 sequence (Q12809 whole entry): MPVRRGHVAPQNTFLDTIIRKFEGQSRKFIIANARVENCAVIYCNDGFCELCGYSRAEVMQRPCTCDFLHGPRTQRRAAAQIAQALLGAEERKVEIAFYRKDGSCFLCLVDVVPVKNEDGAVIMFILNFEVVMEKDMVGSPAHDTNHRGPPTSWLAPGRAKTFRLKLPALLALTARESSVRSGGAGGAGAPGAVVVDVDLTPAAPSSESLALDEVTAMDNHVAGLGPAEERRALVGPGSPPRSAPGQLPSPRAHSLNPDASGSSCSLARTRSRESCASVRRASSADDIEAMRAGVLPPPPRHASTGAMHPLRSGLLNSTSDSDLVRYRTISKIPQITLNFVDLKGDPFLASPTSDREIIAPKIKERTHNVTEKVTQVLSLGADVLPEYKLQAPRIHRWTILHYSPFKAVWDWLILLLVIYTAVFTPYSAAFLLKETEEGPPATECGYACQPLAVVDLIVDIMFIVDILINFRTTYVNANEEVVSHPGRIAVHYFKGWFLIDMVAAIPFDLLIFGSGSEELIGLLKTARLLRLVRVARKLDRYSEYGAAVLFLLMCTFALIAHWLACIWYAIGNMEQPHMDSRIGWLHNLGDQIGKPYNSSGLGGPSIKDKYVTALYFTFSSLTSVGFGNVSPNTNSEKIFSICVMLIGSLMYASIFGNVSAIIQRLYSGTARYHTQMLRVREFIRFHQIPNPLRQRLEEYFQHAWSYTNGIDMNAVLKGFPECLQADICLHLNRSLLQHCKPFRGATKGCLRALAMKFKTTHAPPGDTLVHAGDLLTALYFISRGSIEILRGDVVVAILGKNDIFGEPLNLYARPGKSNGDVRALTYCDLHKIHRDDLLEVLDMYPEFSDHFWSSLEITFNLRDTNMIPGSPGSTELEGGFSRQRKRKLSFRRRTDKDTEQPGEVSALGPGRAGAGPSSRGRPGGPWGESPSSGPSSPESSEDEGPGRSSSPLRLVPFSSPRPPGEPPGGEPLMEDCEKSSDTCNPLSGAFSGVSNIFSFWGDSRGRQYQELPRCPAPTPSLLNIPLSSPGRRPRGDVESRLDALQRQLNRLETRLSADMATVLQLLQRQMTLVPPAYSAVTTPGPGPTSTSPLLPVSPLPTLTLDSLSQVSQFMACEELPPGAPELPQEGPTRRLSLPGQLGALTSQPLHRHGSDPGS
T3 sequence (P23458 whole entry): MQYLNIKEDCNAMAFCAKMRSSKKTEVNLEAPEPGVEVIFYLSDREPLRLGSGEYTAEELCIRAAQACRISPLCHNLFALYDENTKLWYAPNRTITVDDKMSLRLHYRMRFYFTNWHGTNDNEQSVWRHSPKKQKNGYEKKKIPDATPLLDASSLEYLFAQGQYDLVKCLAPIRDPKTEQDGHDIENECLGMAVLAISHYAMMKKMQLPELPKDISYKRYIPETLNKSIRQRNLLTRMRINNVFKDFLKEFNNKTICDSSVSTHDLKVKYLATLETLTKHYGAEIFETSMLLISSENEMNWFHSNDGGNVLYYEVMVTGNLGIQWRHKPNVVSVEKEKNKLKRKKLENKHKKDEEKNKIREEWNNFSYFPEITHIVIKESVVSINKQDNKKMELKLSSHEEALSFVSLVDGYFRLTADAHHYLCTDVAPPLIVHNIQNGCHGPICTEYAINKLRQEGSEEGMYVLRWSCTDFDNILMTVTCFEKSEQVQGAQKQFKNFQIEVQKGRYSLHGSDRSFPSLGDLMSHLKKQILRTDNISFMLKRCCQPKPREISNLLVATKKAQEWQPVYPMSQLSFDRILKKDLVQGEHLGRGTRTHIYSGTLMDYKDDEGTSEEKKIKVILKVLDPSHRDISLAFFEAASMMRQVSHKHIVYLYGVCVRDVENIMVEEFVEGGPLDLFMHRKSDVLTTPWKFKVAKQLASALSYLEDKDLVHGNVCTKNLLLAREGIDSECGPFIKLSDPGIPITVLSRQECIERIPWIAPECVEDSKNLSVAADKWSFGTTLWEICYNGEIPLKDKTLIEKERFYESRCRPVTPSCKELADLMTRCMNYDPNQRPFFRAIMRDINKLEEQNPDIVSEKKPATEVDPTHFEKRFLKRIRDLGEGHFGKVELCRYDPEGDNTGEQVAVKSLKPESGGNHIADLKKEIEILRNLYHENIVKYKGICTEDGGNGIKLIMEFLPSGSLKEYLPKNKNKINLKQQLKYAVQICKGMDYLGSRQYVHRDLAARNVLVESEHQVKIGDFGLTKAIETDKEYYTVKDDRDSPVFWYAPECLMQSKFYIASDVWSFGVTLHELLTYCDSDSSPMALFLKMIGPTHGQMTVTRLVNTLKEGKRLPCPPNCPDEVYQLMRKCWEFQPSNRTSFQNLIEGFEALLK
T4 sequence (P08684 2-503): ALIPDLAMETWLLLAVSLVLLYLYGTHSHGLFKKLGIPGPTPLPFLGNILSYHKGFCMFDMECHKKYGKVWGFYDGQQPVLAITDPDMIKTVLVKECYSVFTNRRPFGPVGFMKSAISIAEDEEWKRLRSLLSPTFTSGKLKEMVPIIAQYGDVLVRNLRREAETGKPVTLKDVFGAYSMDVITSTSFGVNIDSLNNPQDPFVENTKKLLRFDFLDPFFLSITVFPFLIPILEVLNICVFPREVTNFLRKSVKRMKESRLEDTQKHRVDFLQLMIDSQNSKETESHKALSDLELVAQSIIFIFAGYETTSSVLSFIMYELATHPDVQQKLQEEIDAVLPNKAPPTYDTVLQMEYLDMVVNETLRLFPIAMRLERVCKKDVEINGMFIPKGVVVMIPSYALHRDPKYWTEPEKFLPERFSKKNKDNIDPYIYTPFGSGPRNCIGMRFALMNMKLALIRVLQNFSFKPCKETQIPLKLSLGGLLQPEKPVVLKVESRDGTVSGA

Compound: O=S(=O)(N[C@H]1C[C@@H](N2CCOc3cnc4[nH]ccc4c32)C1)C1CN(C2CC2)C1 [Compound E, 1-Cyclopropyl-N-((cis)-3-(2,3-dihydropyrrolo[3′,2′:5,6]pyrido[3,4-b][1,4]oxazin-1(7H)-yl)cyclobutyl)azetidine-3-sulfonamide]
- IC50 (hERG channel): 15 µM
- Intr. Clear. rheps [1]: 40 microL/min/10 6 cells
- IC50 (Tyk2 enzyme): 3.45 µM
- Phototox (3T3 murine fibroblasts): Neg/Neg
- IC50 (Recombinant JAK1): 0.009 µM
- pKa (pKa): 6.1
- IC50 (CYP3A4): 5 µM
- logD (SF logD): 2.1
- PD/IL6 mouse top DR 0.01-10 mM (PG/Acetone/Transcutol): Systemic level @10 mM - 2 hrs [2]: 185 nM
- Kinetic aq sol (Kinetic aq sol): 225/ND/TBD microM
- mFU [3]: 28%
- PD/IL6 mouse top @1 mM % inh vs vehicle (p-STAT3Y705 in skin): 63%
- PD/IL6 mouse top @1 mM % vs Tofa (p-STAT3Y705 in skin): 0.97
- Vd (iv PK mice): 2.6 L/kg
- clearance (iv PK mice; read-out: iv PK mice: Cl): 8.4 L/h/kg
- half-life (iv PK mice; read-out: iv PK mice: t½): 26.4 min
- IC50 (IL6): 1.6 µM
- hFU [4]: 23%
- rFU [5]: 16%
- Selectivity (S1): number of kinases out of panel (kinase panel (403)): 1/403
- iv PK minipig: ER [6]: 171%
- clearance ([6]; male, Göttingen, whole blood, read-out: iv PK minipig: Cl): 2.88 L/h/kg
- chromatographic logD (Chrom logD pH 7.4): 0.8
- Intr. Clear. h heps [7]: 6.5 microL/min/10 6 cells
- dermis concentration [8]: 2.2 µM
- measured flux 6-24 hr [8]: < 0.24 ng/cm^2/hr

— patent publication US12583868B2, “JAK inhibitors and methods for synthesizing and using thereof” (GALDERMA HOLDING SA, priority 2020, dated 2026)
